Laboratory results as given in ChEMBL document CHEMBL5727750, “Heterocyclic compounds as immunomodulators” (2020).
Several values for one entry are separate records, joined by “and”; a condition that tells them apart may be missing. Equal values may be shown once.

experiment: Nuclear Factor of Activated T-Cells (NFAT) Assay: PD-L1 aAPC/CHO-Klcells (Promega) were maintained in F-12 medium with addition of 10% FBS, 200 μg/ml Hygromycin B, 250 μg/ml Geneticin (G418). Jurkat-PD-1-NFAT effector cells (Promega) were cultured in RPMI 1640 medium supplemented with 10% FBS, 100 μg/ml Hygromycin B, 500 μg/ml G418. The culture media of PD-L1 aAPC/CHO-K1 cells were first replaced with assay medium (RPMI1640 medium with 1% FBS). The PD-L1 aAPC/CHO-K1 cells were then added in a white 384-well white clear bottom assay plate (CELLCOAT® Tissue Culture Plates, Greiner Bio-One) at 8000 per well in 10 μL assay medium. Test compounds were prepared by serial dilution in DMSO and 0.8 μL test compounds in DMSO were first transferred to the 384 REMP plate well (Thermofisher) by PlateMate Plus (Thermofisher) followed with addition of 50 μL plating medium. 5 μL compounds in the assay medium were transferred to the cells with 0.4% DMSO in the final assay at 2 μM. After removing the culture media, 10,000 Jurkat-PD-1-NFAT effector cells in 5 μL assay medium was dispensed into each well. The assay plate was incubated at 37° C., 5% CO2 for 24 hours. After the assay plate was equilibrated to room temp for 15 minutes, 20 µL/well of Bio-Glo™ reagent (Promega) were added. After 8 minutes incubation at room temperature, luminescence was read at with Pherastar microplate reader (BMG Labtech). The fold of induction (FOI) was calculated based on the ratio of luminescence normalized to the DMSO wells within each assay plate. The maximum percentage of induction was reported based on the ratio between the highest FOI of each compound and the maximum FOI of control compound within each assay plate. Wells with DMSO were served as the negative controls and wells containing control compound with the highest FOI were used as positive controls. EC50 determination was performed by fitting the curve of percent control activity versus the log of the compound concentration using the GraphPad Prism 6.0 software.

SMILES | EC50
Cc1c(Nc2nc(N)nc3cc(CN4CC[C@@H](O)C4)cnc23)cccc1-c1cccc(-c2nc3cc(CN4CCC(C(=O)O)CC4)cc(C#N)c3o2)c1C | 10 to 100 nM
Cc1c(Nc2nc(C(F)F)nc3cc(CN4CC[C@@H](O)C4)cnc23)cccc1-c1cccc(-c2nc3cc(CN4CCC(C)(C(=O)O)CC4)cc(C#N)c3o2)c1C | 10 to 100 nM
Cc1nc(Nc2cccc(-c3cccc(-c4nc5cc(CN6CCC(C(=O)O)CC6)cc(C#N)c5o4)c3C)c2C)c2ncc(CNC[C@H](C)O)cc2n1 | in the range around 55 nM
Cc1c(Nc2nc(CO)nc3cc(CN4CC[C@@H](O)C4)cnc23)cccc1-c1cccc(-c2nc3cc(CN4CCC(C(=O)O)CC4)cc(C#N)c3o2)c1C | 10 to 100 nM
Cc1c(Nc2nc(C(F)F)nc3cc(CN4CC[C@](C)(O)C4)cnc23)cccc1-c1cccc(-c2nc3cc(CN4CCC(C(=O)O)CC4)cc(C#N)c3o2)c1C | < 10 nM
Cc1c(Nc2nc(C(F)F)nc3cc(CN4CC[C@@H](O)C4)cnc23)cccc1-c1cccc(-c2nc3cc(CN4CCC(C(=O)N(C)C)CC4)cc(C#N)c3o2)c1C | 10 to 100 nM
Cc1nc(Nc2cccc(-c3cccc(-c4nc5cc(CN6CC[C@@H](C(=O)O)C6)cc(C#N)c5o4)c3C)c2C)c2ncc(CN3CC[C@](C)(O)C3)cc2n1 | 10 to 100 nM
Cc1nc(Nc2cccc(-c3cccc(-c4nc5cc(CN6CC[C@@H](C(=O)O)C6)cc(C#N)c5o4)c3C)c2C)c2ncc(CNC[C@H](C)O)cc2n1 | 10 to 100 nM
Cc1c(Nc2nc(C(F)F)nc3cc(CN4CC[C@@H](O)C4)cnc23)cccc1-c1cccc(-c2nc3cc(CN4CC[C@@H](C(=O)O)C4)cc(C#N)c3o2)c1C | 10 nM and 100 nM and in the range around 55 nM
Cc1c(Nc2nc(C(F)F)cc3cc(CN4CC[C@@H](O)C4)cnc23)cccc1-c1cccc(-c2nc3cc(CN4CC[C@@](C)(C(=O)O)C4)cc(C#N)c3o2)c1C | < 10 nM
Cc1nc(Nc2cccc(-c3cccc(-c4nc5cc(CN6CCC(C(=O)O)CC6)cc(C#N)c5o4)c3C)c2C)c2ncc(CN3CC[C@](C)(O)C3)cc2n1 | 10 to 100 nM
Cc1c(Nc2nc(C(F)F)nc3cc(CN4CC[C@@H](O)C4)cnc23)cccc1-c1cccc(-c2nc3cc(CN4CC[C@@](C)(C(=O)O)C4)cc(C#N)c3o2)c1C | 10 nM and 100 nM and in the range around 55 nM
Cc1nc(Nc2cccc(-c3cccc(-c4nc5cc(CN6CC[C@@](C)(C(=O)O)C6)cc(C#N)c5o4)c3C)c2C)c2ncc(CN[C@@H](C)CO)cc2n1 | in the range around 55 nM
Cc1nc(Nc2cccc(-c3cccc(-c4nc5cc(CN6CC[C@@H](C(=O)O)C6)cc(C#N)c5o4)c3C)c2C)c2ncc(CN[C@@H](C)CO)cc2n1 | 10 to 100 nM
Cc1nc(Nc2cccc(-c3cccc(-c4nc5cc(CN6CCC(C(=O)O)CC6)cc(C#N)c5o4)c3C)c2C)c2ncc(CN3CC[C@@H](O)C3)cc2n1 | 10 to 100 nM
Cc1c(Nc2nc(C(F)F)nc3cc(CN4CC[C@@H](O)C4)cnc23)cccc1-c1cccc(-c2nc3cc(CN4CC[C@H](C(=O)O)C4)cc(C#N)c3o2)c1C | 10 to 100 nM
Cc1nc(Nc2cccc(-c3cccc(-c4nc5cc(CN6CC[C@@](C)(C(=O)O)C6)cc(C#N)c5o4)c3C)c2C)c2ncc(CNC[C@H](C)O)cc2n1 | in the range around 55 nM
CNC(=O)C1CCN(Cc2cc(C#N)c3oc(-c4cccc(-c5cccc(Nc6nc(C(F)F)nc7cc(CN8CC[C@@H](O)C8)cnc67)c5C)c4C)nc3c2)CC1 | < 10 nM
Cc1c(Nc2nc(C3CC3)nc3cc(CN4CC[C@@H](O)C4)cnc23)cccc1-c1cccc(-c2nc3cc(CN4CC[C@@H](C(=O)O)C4)cc(C#N)c3o2)c1C | in the range around 55 nM
Cc1c(Nc2nc(C(F)F)nc3cc(CN4CC[C@@](C)(O)C4)cnc23)cccc1-c1cccc(-c2nc3cc(CN4CCC(C(=O)O)CC4)cc(C#N)c3o2)c1C | < 10 nM
Cc1nc(Nc2cccc(-c3cccc(-c4nc5cc(CN6CC[C@@H](C(=O)O)C6)cc(C#N)c5o4)c3C)c2C)c2ncc(CN3CC[C@@](C)(O)C3)cc2n1 | 10 to 100 nM
Cc1nc(Nc2cccc(-c3cccc(-c4nc5cc(CN6CC[C@@](C)(C(=O)O)C6)cc(C#N)c5o4)c3C)c2C)c2ncc(CN3CC[C@@](C)(O)C3)cc2n1 | 10 to 100 nM
Cc1c(Nc2nc(C(F)F)nc3cc(CN4CC[C@@H](O)C4)cnc23)cccc1-c1cccc(-c2nc3cc(CN4CC[C@](C)(C(=O)O)C4)cc(C#N)c3o2)c1C | < 10 nM
Cc1nc(Nc2cccc(-c3cccc(-c4nc5cc(CN6CCC(C(=O)O)CC6)cc(C#N)c5o4)c3C)c2C)c2ncc(CN3CC[C@@](C)(O)C3)cc2n1 | 10 to 100 nM
Cc1nc(Nc2cccc(-c3cccc(-c4nc5cc(CN6CC[C@@](C)(C(=O)O)C6)cc(C#N)c5o4)c3C)c2C)c2ncc(CN3CC[C@](C)(O)C3)cc2n1 | 10 to 100 nM
Cc1c(Nc2nc(C(F)F)nc3cc(CN4CC[C@@H](O)C4)cnc23)cccc1-c1cccc(-c2nc3cc(CN4CCC(C(=O)NCCC(=O)O)CC4)cc(C#N)c3o2)c1C | 10 to 100 nM
Cc1nc(Nc2cccc(-c3cccc(-c4nc5cc(CN6CC[C@@](C)(C(=O)O)C6)cc(C#N)c5o4)c3C)c2C)c2ncc(CN3CC[C@@H](O)C3)cc2n1 | 10 to 100 nM
Cc1nc(Nc2cccc(-c3cccc(-c4nc5cc(CN6CC[C@@H](C(=O)O)C6)cc(C#N)c5o4)c3C)c2C)c2ncc(CN3CC[C@@H](O)C3)cc2n1 | 10 to 100 nM and < 10 nM
Cc1nc(Nc2cccc(-c3cccc(-c4nc5cc(CN6CCC(C(=O)O)CC6)cc(C#N)c5o4)c3C)c2C)c2ncc(CN[C@@H](C)CO)cc2n1 | in the range around 55 nM
Cc1c(Nc2nc(C(F)F)nc3cc(CN4CC[C@@H](O)C4)cnc23)cccc1-c1cccc(-c2nc3cc(CN4CCC(C(=O)O)CC4)cc(C#N)c3o2)c1C | in the range around 55 nM
